Converted amounts (≈) assume the structure as drawn.
Tested on: Acinetobacter baumannii
Experiment: Antibacterial activity against Acinetobacter baumannii assessed as planktonic growth inhibition incubated for 18 to 24 hrs by CLSI protocol based assay
Assay type: functional
Details: time 18-24 hrs

Question: How did the MIC turn out when `CN[C@@H]1[C@@H](O)[C@@H](O[C@@H]2[C@@H](O)[C@H](O[C@H]3O[C@H]([C@@H](C)NC)CC[C@H]3N)[C@@H](N)C[C@H]2N)OC[C@]1(C)O.O=S(=O)(O)O` was run?
Answer: Its MIC is 1 mg/L.

Question: `Cc1onc(-c2ccccc2)c1C(=O)N[C@@H]1C(=O)N2[C@@H]1SC(C)(C)[C@@H]2C(=O)O` [OXACILLIN] was tested. Which MIC did it give?
Answer: Its MIC is 512 mg/L (≈ 1280 µM).

Question: `O=C(N[C@H](CO)[C@H](O)c1ccc([N+](=O)[O-])cc1)C(Cl)Cl` [CHLORAMPHENICOL] was tested. Which MIC did it give?
Answer: The MIC was 256 mg/L (≈ 792 µM).
